The target in assay [1] is human adenosine A1 receptor (Homo sapiens (Human), UniProt P30542). The assay can be described thus: Adenosine receptor binding assay, A1 ([3H]DPCPX inhibition binding on membranes). The following applies: 1 nM [3H]DPCPX, 25° C., 1 h; Ki from IC50 by Cheng-Prusoff. The protocol:
(§1) Inhibition binding assays were performed using 0.2 μg of membranes prepared from HEK293 cells infected with BacMam human adenosine A2A receptor or 1.4 μg of membranes prepared from HEK293 cells infected with BacMam human adenosine A1 receptor. Membranes were incubated in 50 mM Tris-HCl (HEK293-hA2A; pH 7.4) or 50 mM Tris-HCl, 100 mM NaCl, 10 mM MgCl2 (CHO-hA1; pH 7.4) in the presence of varying concentrations of test compound and 1 nM [^3H]ZM241385 (HEK293-hA2A) or [^3H]DPCPX (CHO-hA1) at 25° C. for 1 h. The assay was then terminated by rapid filtration onto GF/B grade Unifilter plates using a TomTec cell harvester, followed by 5×0.5 ml washes with ddH2O. Nonspecific binding was defined in the presence of 1 μM CGS15943 (HEK293-hA2A) or 1 μM DPCPX (CHO-hA1). Bound radioactivity was determined by liquid scintillation counting and inhibition curves were analysed using a four-parameter logistic equation. IC50 values were converted to Ki values with the Cheng-Prusoff equation using a KD value derived from saturation binding studies.

In assay [2] the target is human adenosine A2A receptor (Homo sapiens (Human), UniProt P29274). The assay can be described thus: Adenosine receptor binding assay, A2A ([3H]ZM241385 inhibition binding on HEK293 membranes). The following applies: 1 nM [3H]ZM241385, 25° C., 1 h; Ki from IC50 by Cheng-Prusoff. The protocol:
as §1

For another assay, the target named is human CB1 receptor (Homo sapiens (Human), UniProt P21554). The assay can be described thus: CB1 receptor antagonism, agonist-induced cAMP modulation (HTRF) in transfected CHO cells. It is filed as cell-based. The following applies: inhibition of control response to 3 nM CP 55940, cAMP HTRF, read-out: Antag IC50. On the procedure: Receptor antagonism: Evaluation of the antagonist activity of compounds at the human CB1 receptor expressed in transfected CHO cells, determined by measuring their effects on agonist-induced cAMP modulation using the HTRF detection method.
The cells are suspended in HBSS buffer (Invitrogen) complemented with 20 mM HEPES (pH 7.4), then distributed in microplates at a density of 5.10^3 cells/well and preincubated for 5 min at room temperature in the presence of either of the following: HBSS (stimulated control), the reference antagonist AM 281 at 3 μM (basal control) or various concentrations (IC50 determination), or the test compounds.
Thereafter, the reference agonist CP 55940 and the adenylyl cyclase activator NKH 477 are added at respective final concentrations of 3 nM and 3 μM.
For basal control measurements, CP 55940 is omitted from the wells containing 3 μM AM 281.
Following 20 min incubation at 37° C., the cells are lysed and the fluorescence acceptor (D2-labeled cAMP) and fluorescence donor (anti-cAMP antibody labeled with europium cryptate) are added.
After 60 min at room temperature, the fluorescence transfer is measured at λex=337 nm and λem=620 and 665 nm using a microplate reader (Rubystar, BMG). The cAMP concentration is determined by dividing the signal measured at 665 nm by that measured at 620 nm (ratio).
The results are expressed as a percent inhibition of the control response to 3 nM CP 55940.
The standard reference antagonist is AM 281, which is tested in each experiment at several concentrations to generate a concentration-response curve from which its IC50 value is calculated.
On the technique in general: Time-resolved FRET reads energy transfer from a long-lived donor to a nearby acceptor.

This note sets out measurements from patent US12552799B2, “Triazolone compounds” (Nxera Pharma UK Limited, priority 2020, dated 2026).

A word on the IC50: it is the concentration that inhibits the measured activity by half.

Chain of human adenosine A2A receptor (P29274 whole entry): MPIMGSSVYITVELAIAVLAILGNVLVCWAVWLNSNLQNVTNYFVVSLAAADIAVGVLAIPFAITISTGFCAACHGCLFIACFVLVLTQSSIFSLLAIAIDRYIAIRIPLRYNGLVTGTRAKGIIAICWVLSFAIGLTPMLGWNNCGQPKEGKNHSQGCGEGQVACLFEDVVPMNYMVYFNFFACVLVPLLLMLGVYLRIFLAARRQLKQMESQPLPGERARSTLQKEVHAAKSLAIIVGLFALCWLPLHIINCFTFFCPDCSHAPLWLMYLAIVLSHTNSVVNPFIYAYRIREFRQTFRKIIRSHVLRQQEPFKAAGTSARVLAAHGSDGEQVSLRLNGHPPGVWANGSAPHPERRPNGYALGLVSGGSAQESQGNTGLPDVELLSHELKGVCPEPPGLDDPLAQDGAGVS
Chain of human adenosine A1 receptor (P30542 whole entry): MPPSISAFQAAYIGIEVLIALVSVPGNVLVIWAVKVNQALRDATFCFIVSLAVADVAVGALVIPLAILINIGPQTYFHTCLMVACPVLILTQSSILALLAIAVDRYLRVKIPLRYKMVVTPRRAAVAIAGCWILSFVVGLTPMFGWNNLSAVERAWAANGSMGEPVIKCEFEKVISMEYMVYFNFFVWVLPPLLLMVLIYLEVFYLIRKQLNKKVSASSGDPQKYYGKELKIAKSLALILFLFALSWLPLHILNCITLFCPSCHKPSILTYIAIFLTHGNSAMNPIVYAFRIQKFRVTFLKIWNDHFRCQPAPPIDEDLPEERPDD
Chain of human CB1 receptor (P21554 whole entry): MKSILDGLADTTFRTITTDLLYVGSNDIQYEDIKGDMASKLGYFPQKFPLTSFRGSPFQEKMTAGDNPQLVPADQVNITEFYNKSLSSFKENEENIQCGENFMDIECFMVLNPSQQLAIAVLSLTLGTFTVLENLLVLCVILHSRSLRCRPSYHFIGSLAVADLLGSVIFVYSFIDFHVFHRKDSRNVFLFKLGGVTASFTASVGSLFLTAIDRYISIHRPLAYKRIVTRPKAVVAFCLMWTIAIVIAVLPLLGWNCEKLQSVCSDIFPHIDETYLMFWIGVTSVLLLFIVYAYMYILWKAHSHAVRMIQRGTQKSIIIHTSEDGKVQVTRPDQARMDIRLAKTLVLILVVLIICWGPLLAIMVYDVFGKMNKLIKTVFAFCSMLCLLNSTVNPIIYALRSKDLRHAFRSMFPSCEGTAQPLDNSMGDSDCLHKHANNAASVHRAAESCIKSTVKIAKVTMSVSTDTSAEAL

As for `C[C@@H]1CN(c2c(-c3ccccc3)nc(N)n3c(=O)n(CCC(F)F)nc23)C[C@H](C)O1` [Example 1-3, 5-amino-2-(3,3-difluoropropyl)-8-[(cis)-2,6-dimethylmorpholin-4-yl]-7-phenyl-[1,2,4]triazolo[4,3-c]pyrimidin-3-one], the “A1 pKi” value in assay [1] is recorded as less than 5.4. For the same compound, the “A2A pKi” value in assay [2] amounted to 7.1.

Regarding `C[C@@H]1CN(c2c(-c3ccc(F)cc3)nc(N)n3c(=O)n(CCC(F)(F)F)nc23)C[C@H](C)O1` [Example 1-5, 5-amino-8-[(cis)-2,6-dimethylmorpholin-4-yl]-7-(4-fluorophenyl)-2-(3,3,3-trifluoropropyl)-[1,2,4]triazolo[4,3-c]pyrimidin-3-one], the “A1 pKi” value in assay [1] is given as less than 5.5. Moreover, the “A2A pKi” value in assay [2] came out at 7.3. The like results for `CCCn1nc2c(N3C[C@@H](C)O[C@@H](C)C3)c(-c3ccc(F)cc3)nc(N)n2c1=O` [Example 1-6, 5-amino-8-[(cis)-2,6-dimethylmorpholin-4-yl]-7-(4-fluorophenyl)-2-propyl-[1,2,4]triazolo[4,3-c]pyrimidin-3-one] were, in that order, 6.4 and 6.9. With `C[C@@H]1CN(c2c(-c3ccccc3)nc(N)n3c(=O)n(C[C@H]4CCCO4)nc23)C[C@H](C)O1` [Example 1-8, 5-amino-8-[(cis)-2,6-dimethylmorpholin-4-yl]-7-phenyl-2-[[(2R)-tetrahydrofuran-2-yl]methyl]-[1,2,4]triazolo[4,3-c]pyrimidin-3-one], at human CB1 receptor, the IC50 was more than 100 µM. As for `C[C@@H]1CN(c2c(-c3ccccc3)nc(N)n3c(=O)n(CCN4CCCCC4)nc23)C[C@H](C)O1` [Example 1-9, 5-amino-8-[(cis)-2,6-dimethylmorpholin-4-yl]-7-phenyl-2-[2-(1-piperidyl)ethyl]-[1,2,4]triazolo[4,3-c]pyrimidin-3-one], in assay [1], the “A1 pKi” value is recorded as less than 5.5. Besides, in assay [2], the “A2A pKi” value is 6.7. As for `C[C@@H]1CN(c2c(-c3ccccc3)nc(N)n3c(=O)n(C[C@H]4COCCN4)nc23)C[C@H](C)O1` [Example 1-10, 5-amino-8-[(cis)-2,6-dimethylmorpholin-4-yl]-2-[[(3S)-morpholin-3-yl]methyl]-7-phenyl-[1,2,4]triazolo[4,3-c]pyrimidin-3-one], the “A1 pKi” value in assay [1] is reported as less than 5.4. Also, the “A2A pKi” value in assay [2] was determined as 6.9. On to `C[C@@H]1CN(c2c(-c3ccccc3)nc(N)n3c(=O)n(C[C@@H]4COCCN4)nc23)C[C@H](C)O1` [Example 1-11, 5-amino-8-[(cis)-2,6-dimethylmorpholin-4-yl]-2-[[(3R)-morpholin-3-yl]methyl]-7-phenyl-[1,2,4]triazolo[4,3-c]pyrimidin-3-one], for which, in assay [1], the “A1 pKi” value is on record as less than 5.6. Further, the “A2A pKi” value in assay [2] turned out to be 6.7. `C[C@@H]1CN(c2c(-c3ccccc3)nc(N)n3c(=O)n(C[C@H]4COCCN4C)nc23)C[C@H](C)O1` [Example 1-12, 5-amino-8-[(cis)-2,6-dimethylmorpholin-4-yl]-2-[[(3S)-4-methylmorpholin-3-yl]methyl]-7-phenyl-[1,2,4]triazolo[4,3-c]pyrimidin-3-one]: in assay [1], the “A1 pKi” value was less than 5.4. Further, in assay [2], the “A2A pKi” value was determined as 6.9.

As for `C[C@@H]1CN(c2c(-c3ccccc3)nc(N)n3c(=O)n(C[C@@H]4COCCN4C)nc23)C[C@H](C)O1` [Example 1-13, 5-amino-8-[(cis)-2,6-dimethylmorpholin-4-yl]-2-[[(3R)-4-methylmorpholin-3-yl]methyl]-7-phenyl-[1,2,4]triazolo[4,3-c]pyrimidin-3-one], the “A1 pKi” value in assay [1] is listed as less than 5.4. The “A2A pKi” value in assay [2] worked out at 7.1. The like results for `COc1ncccc1Cn1nc2c(N3C[C@@H](C)O[C@@H](C)C3)c(-c3ccccc3)nc(N)n2c1=O` [Example 1-15, 5-amino-8-[(cis)-2,6-dimethylmorpholin-4-yl]-2-[(2-methoxy-3-pyridyl)methyl]-7-phenyl-[1,2,4]triazolo[4,3-c]pyrimidin-3-one] were, in that order, 6.4 and 8.4. On to `C[C@@H]1CN(c2c(-c3ccccc3)nc(N)n3c(=O)n(Cc4cccnn4)nc23)C[C@H](C)O1` [Example 1-16, 5-amino-8-[(cis)-2,6-dimethylmorpholin-4-yl]-7-phenyl-2-(pyridazin-3-ylmethyl)-[1,2,4]triazolo[4,3-c]pyrimidin-3-one], for which the “A1 pKi” value in assay [1] was 6.1. The “A2A pKi” value in assay [2] is recorded as 7.2. The like results for `C[C@@H]1CN(c2c(-c3ccccc3)nc(N)n3c(=O)n(CCc4ccccc4)nc23)C[C@H](C)O1` [Example 1-17, 5-amino-8-[(cis)-2,6-dimethylmorpholin-4-yl]-7-phenyl-2-(2-phenylethyl)-[1,2,4]triazolo[4,3-c]pyrimidin-3-one] were, in that order, less than 5.8 and 7.2. As to `C[C@@H]1CC(c2c(-c3ccccc3)nc(N)n3c(=O)n(CCC(F)(F)F)nc23)C[C@H](C)O1` (stereo partly drawn) [Example 2-2, 5-amino-8-[(cis)-2,6-dimethyltetrahydropyran-4-yl]-7-phenyl-2-(3,3,3-trifluoropropyl)-[1,2,4]triazolo[4,3-c]pyrimidin-3-one], in assay [1], the “A1 pKi” value was less than 5.5. Besides, the “A2A pKi” value in assay [2] stood at 7.4.

Consider `Cc1cc(-c2c(-c3ccccc3)nc(N)n3c(=O)n(Cc4ccc(F)cn4)nc23)cc(C)c1O` [Example 3-1, 5-amino-2-[(5-fluoro-2-pyridyl)methyl]-8-(4-hydroxy-3,5-dimethyl-phenyl)-7-phenyl-[1,2,4]triazolo[4,3-c]pyrimidin-3-one], for which the IC50 on human CB1 receptor is more than 100 µM. On to `Cc1ccc(Cn2nc3c(-c4cc(C)c5ncoc5c4)c(-c4ccc(F)cc4)nc(N)n3c2=O)nc1` [Example 4-3, 5-amino-7-(4-fluorophenyl)-8-(4-methyl-1,3-benzoxazol-6-yl)-2-[(5-methyl-2-pyridyl)methyl]-[1,2,4]triazolo[4,3-c]pyrimidin-3-one], for which the “A1 pKi” value in assay [1] was 6.9. In addition, the “A2A pKi” value in assay [2] is reported as 9.8. As to `Cc1ocnc1Cn1nc2c(-c3cc(C)c4ncoc4c3)c(-c3ccccc3)nc(N)n2c1=O` [Example 4-6, 5-amino-8-(4-methyl-1,3-benzoxazol-6-yl)-2-[(5-methyloxazol-4-yl)methyl]-7-phenyl-[1,2,4]triazolo[4,3-c]pyrimidin-3-one], the IC50 at human CB1 receptor came to 17.9 µM. For the compound `Cc1nc(Cn2nc3c(-c4cc(C)c5ncoc5c4)c(-c4ccc(F)cc4)nc(N)n3c2=O)c(C)o1` [Example 4-7, 5-amino-2-[(2,5-dimethyloxazol-4-yl)methyl]-7-(4-fluorophenyl)-8-(4-methyl-1,3-benzoxazol-6-yl)-[1,2,4]triazolo[4,3-c]pyrimidin-3-one], in assay [1], the “A1 pKi” value is on record as 7.7. For the same compound, the “A2A pKi” value in assay [2] was 9.9. For the compound `Cc1ocnc1Cn1nc2c(-c3cc(C)c4[nH]ncc4c3)c(-c3ccc(F)cc3)nc(N)n2c1=O` [Example 4-8, 5-amino-7-(4-fluorophenyl)-8-(7-methyl-1H-indazol-5-yl)-2-[(5-methyloxazol-4-yl)methyl]-[1,2,4]triazolo[4,3-c]pyrimidin-3-one], the “A1 pKi” value in assay [1] is 8.4. Besides, in assay [2], the “A2A pKi” value is 9.6.

Consider `[2H]c1c([2H])c([2H])c(-c2nc(N)n3c(=O)n(Cc4ncoc4C)nc3c2-c2cc(C)c3[nH]ncc3c2)c([2H])c1[2H]` [Example 4-10, 5-amino-8-(7-methyl-1H-indazol-5-yl)-2-[(5-methyloxazol-4-yl)methyl]-7-(2,3,4,5,6-pentadeuteriophenyl)-[1,2,4]triazolo[4,3-c]pyrimidin-3-one], for which, in assay [1], the “A1 pKi” value stood at 8.7. In assay [2], the “A2A pKi” value was 10.0.
